Patent US9096601B2 (CSPC Zhongqi Pharmaceutical Technology (Shijiazhuang) Co., …, priority 2010, dated 2015)
Where two headings read alike, the source gives them in different places.

How the values were obtained:
[1] = system: breast carcinoma cell strain MDA-MB-468; experiment: In-vitro tumor cell proliferation inhibition, MTT; assay type: cell-based, human
[2] = system: colon cancer cell strain SW620; experiment: In-vitro tumor cell proliferation inhibition, MTT; assay type: cell-based, human
Summary of the method: (§1)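 MTT colorimetric proliferation test: plated cells exposed 72 h to compound dilution series, DMSO 1% solvent control included. A570 gave inhibition relative to drug-free control; IC50 or inhibitory rate from at least three experiments. HCC827 and BT474 grown in RPMI-1640, A431 and SW620 in DMEM, both with 10% FBS.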

[3] = system: chronic granulocytic leukemia cell strain K562; experiment: In-vitro tumor cell proliferation inhibition, MTT; assay type: cell-based, human
[4] = system: acute myelogenous leukemia cell strain MV4-11; experiment: In-vitro tumor cell proliferation inhibition, MTT; assay type: cell-based, human
[5] = system: gastric cancer cell strain MK-45; experiment: In-vitro tumor cell proliferation inhibition, MTT; assay type: cell-based, human; conditions: 72 hours, read-out: MK45 (IC50)
[6] = system: squamous cell carcinoma cell strain A431; experiment: In-vitro tumor cell proliferation inhibition, MTT; assay type: cell-based, human
Summary of the method: as §1

[7] = system: malignant melanoma cell strain A375; experiment: In-vitro tumor cell proliferation inhibition, MTT; assay type: cell-based, human
[8] = system: breast carcinoma cell strain BT474; experiment: In-vitro tumor cell proliferation inhibition, MTT; assay type: cell-based, human
Summary of the method: as §1

[9] = system: liver cancer cell strain Hep G2; experiment: In-vitro tumor cell proliferation inhibition, MTT; assay type: cell-based, human
[10] = system: colon cancer cell strain HCT116; experiment: In-vitro tumor cell proliferation inhibition, MTT; assay type: cell-based, human
[11] = system: colon cancer cell strain SW480; experiment: In-vitro tumor cell proliferation inhibition, MTT; assay type: cell-based, human
[12] = system: human non-small cell lung carcinoma cell strain HCC827; experiment: In-vivo anti-tumor test, nude mouse subcutaneously transplanted non-small cell lung carcinoma model; conditions: nude mice, intragastric
Description: The object of this assay was to determine the in-vivo anti-tumor effect of the present compound. In this assay, a nude mouse subcutaneously transplanted non-small cell lung carcinoma model was used to test the present compound 8-10 for the in-vivo anti-tumor activity. The used cell strain was human non-small cell lung carcinoma cell strain HCC827.
BALB/C nude mice, aged 6-8 weeks, were inoculated with HCC827 cell subcutaneously at the posterior segment of rib in a concentration of about 5×10^6 cells/0.1 ml per mouse. Upon the growth of the tumor up to 200-300 mm^3 (about 20 days), mice were grouped (n=6) and administrated intragastrically.
Observation Indices: the mice were measured every three days for the weight, and the length and width of tumor, and the tumor volume was calculated as length×width^2×0.52. […] 3. Results

[13] = 72 hours, read-out: HEPG2 (IC50)

| SMILES | IC50 ([1]; 72 hours) [nM] | IC50 ([2]; 72 hours) [nM] | IC50 ([3]; 72 hours) [nM] | IC50 ([4]; 72 hours) [nM] | IC50 [5] [nM] | IC50 ([6]; 72 hours) [nM] | IC50 ([7]; 72 hours) [nM] | IC50 ([8]; 72 hours) [nM] | IC50 [9, 13] [nM] | IC50 ([10]; 72 hours) [nM] | IC50 ([11]; 72 hours) [nM] | other results |
| --- | --- | --- | --- | --- | --- | --- | --- | --- | --- | --- | --- | --- |
| CC(C)n1c(Nc2ccccc2)nc2cnc(Nc3ccc(C(=O)NN4CCN(C)CC4)cc3)nc21 [Compound 8-1] | 2060 | > 10000 | 1080 | 89 | 6800 | 2060 | 3020 | 2130 | > 10000 | > 10000 | 5720 | – |
| CC(C)n1c(Nc2ccc(F)c(Cl)c2)nc2cnc(Nc3ccc(C(=O)NN4CCN(C)CC4)cc3)nc21 [Compound 8-2] | 6130 | 5570 | 3730 | 1770 | > 1000 | 9290 | 1590 | 1860 | > 10000 | 7810 | > 10000 | – |
| COc1cc(C(=O)NN2CCN(C)CC2)ccc1Nc1ncc2nc(Nc3ccccc3)n(C(C)C)c2n1 [Compound 8-7, 3-methoxy-4-(9-isopropyl-8-phenylamino-9H-purin-2-ylamino)-N-(4-methylpiperazin-1-yl)benzamide] | – | – | – | – | – | – | – | – | – | – | – | IC50 ([1]; Homo sapiens, MDA-MB-468, 72 hours): > 10000 nM; IC50 ([2]; Homo sapiens, SW-620, 72 hours): > 10000 nM; IC50 ([3]; Homo sapiens, K562, 72 hours): > 10000 nM; IC50 ([4]; Homo sapiens, MV4-11, 72 hours): > 10000 nM; IC50 ([5]; Homo sapiens): 3760 nM; IC50 ([6]; Homo sapiens, A-431, 72 hours): > 10000 nM; IC50 ([7]; Homo sapiens, A-375, 72 hours): 1310 nM; IC50 ([8]; Homo sapiens, BT-474, 72 hours): 5820 nM; IC50 ([9]; Homo sapiens, HepG2, 72 hours): > 10000 nM; IC50 ([10]; Homo sapiens, HCT-116, 72 hours): > 10000 nM; IC50 ([11]; Homo sapiens, SW480, 72 hours): > 10000 nM |
| CC(C)n1c(Nc2ccccc2)nc2cnc(Nc3ccc(C(=O)NC4CCN(C)CC4)cc3)nc21 [Compounds 8-9] | 1320 | 524 | 143 | 235 | 764 | 1530 | 586 | 1030 | > 10000 | 518 | > 10000 | – |
| CC(C)n1c(Nc2ccccc2)nc2cnc(Nc3ccc(N4CCN(C)CC4)cc3)nc21 [Compounds 8-10] | 700 | 6060 | 106 | 102 | > 1000 | 1580 | 1490 | 226 | 4800 | 1090 | > 10000 | in-vivo tumor growth inhibition ([12]; HCC827 xenograft, 2 mg/kg q.d. or higher (2, 5, 10, 20 mg/kg q.d.)): substantial in-vivo growth inhibition; toxicity (untoward reactions: weight reduction, exanthema, diarrhea) ([12]; 2-20 mg/kg q.d.): low toxicity |
| CC(C)n1c(Nc2cccc(Br)c2)nc2cnc(Nc3ccc(N4CCN(C)CC4)cc3)nc21 [Compounds 8-11] | 1190 | 1960 | 366 | 3760 | > 1000 | 7670 | 1390 | 575 | 11200 | 1680 | > 10000 | – |
| C#Cc1cccc(Nc2nc3cnc(Nc4ccc(N5CCN(C)CC5)cc4)nc3n2C(C)C)c1 [Compounds 8-12] | 3220 | 1290 | 221 | 1710 | > 1000 | 2570 | 3090 | 2140 | 6610 | 4010 | > 10000 | – |
| CC(C)n1c(Nc2ccc(F)c(Cl)c2)nc2cnc(Nc3ccc(N4CCN(C)CC4)cc3)nc21 [Compounds 8-13] | 2100 | 3680 | 86 | 512 | > 1000 | 1290 | 838 | 202 | 5960 | 2540 | > 10000 | – |
| CC(C)n1c(Nc2ccc(Br)cc2)nc2cnc(Nc3ccc(N4CCN(C)CC4)cc3)nc21 [Compounds 8-15] | 2300 | 2990 | 303 | 197 | 710 | 9400 | 775 | 1920 | 7790 | 2200 | > 10000 | – |
| CC(C)n1c(Nc2cccc(C(F)(F)F)c2)nc2cnc(Nc3ccc(N4CCN(C)CC4)cc3)nc21 [Compounds 8-16] | 1960 | 864 | 2520 | 4800 | > 1000 | 5880 | 3100 | 1370 | 10400 | 766 | 6480 | – |
